“And” between values parts separate entries of the source, which are not always exact repeats. Identical values can stand only once.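 Tested at 5 concentrations; 48 h exposure; 96-well plates; endpoints linearly interpolated, else capped at highest concentration. At the GI50, growth is halved. Definition used: TGI = concentration required for complete inhibition of growth.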
Tested on: IGROV1 ovarian
Test: NCI anticancer screen, dose series, 48 h

CC(=O)C(=CN1CCN(C(=O)c2ccco2)C1=S)C(C)=O was tested. Which GI50 did it give?
The GI50 was 3.64 µM.

And the TGI?
The TGI was 17.3 µM.

With c1ccc(C2Nc3ccccc3C3OCCCC23)cc1 (stereo not given) as the compound, how does the TGI read?
Its TGI is 70.2 µM.

Which results are given for CCOc1cc(C(C)(C)C)ccc1C1=N[C@@](C)(c2ccc(Cl)cc2)[C@@](C)(c2ccc(Cl)cc2)N1C(=O)N1CCN(CCCS(C)(=O)=O)CC1?
GI50: 1.4 µM; TGI: 10.9 µM

Tested on: HL-60(TB) leukemia
Test: NCI anticancer screen, dose series, 48 h

With O=C1[C@@H]2C(c3ccccc3F)=NO[C@@H]2C(=O)N1c1ccc(Cc2ccc(N3C(=O)[C@H]4C(c5ccccc5F)=NO[C@H]4C3=O)cc2)cc1 as the compound, how does the TGI read?
The TGI was 34.7 µM.

Which TGI does the source give for C=CCc1ccc(Oc2cc(CC=C)c3c(c2O)O[C@@H](CO)[C@H]3c2ccc(O)c(-c3cc(CC=C)ccc3O)c2)cc1 here?
Its TGI is 55.3 µM.

For Cn1c2ccccc2c(=O)c2ccc(Cl)cc21, which TGI is on record?
The TGI was > 10 µM.

For O=C(NCO)NCOCn1c(=O)n(CO)c(=O)n(CO)c1=O, which TGI is on record?
The TGI was 47.5 µM.

For Clc1ccc2c(c1)-c1c3c(nn1-c1ccccc1)-c1ccccc1SC3O2 (stereo not given), which TGI is on record?
Its TGI is > 100 µM.

CN(C)c1cc[c]([Sn]([c]2ccc(N(C)C)cc2)([c]2ccc(N(C)C)cc2)[c]2ccc(N(C)C)cc2)cc1 was tested. Which GI50 did it give?
Its GI50 is 1.89 µM.

What about the TGI of the same compound?
The TGI was 6.93 µM.

How did the TGI turn out when CCCSc1nc(COC(=O)NC)c(COC(=O)NC)n1C was run?
The TGI was 89.6 µM and > 100 µM.

With O=C1CCC(O)=C1N=Nc1ccccc1 as the compound, how does the TGI read?
The TGI was > 100 µM.

Which GI50 does the source give for C[C@]12CC[C@@H]3c4cc(OCC(F)(F)F)c(O)cc4/C(=N/O)C[C@H]3[C@@H]1CC[C@@H]2O here?
The GI50 was 0.031 µM.

And the TGI?
The TGI was > 100 µM.

How did the TGI turn out when NC(=O)NCc1c(C(N)=O)ncn1Cc1ccccc1 was run?
The TGI was > 100 µM.

How did the TGI turn out when O=C1CSC(/C(=N/Nc2ccccc2)c2nc3ccccc3[nH]2)=N1 was run?
The TGI was > 100 µM.

For O=C(c1ccccc1)C1OC12C(=O)Nc1ccccc12 (stereo not given), which TGI is on record?
Its TGI is 9.73 µM.

For S=C1OC2CCCC[C@H]2O1 (stereo not given in full), which TGI is on record?
Its TGI is > 100 µM.

Which TGI does the source give for O=C1/C(=C/c2cccc([N+](=O)[O-])c2)COc2ccc(Br)cc21 here?
Its TGI is 58 µM.

For CSC(C1c2ccccc2N(c2ccc(C)cc2)c2[nH]c(=O)n(C)c(=O)c21)S(=O)(=O)c1ccc(C)cc1 (stereo not given), which TGI is on record?
Its TGI is > 100 µM.

Which TGI does the source give for CCOC(=O)NC(=O)c1cn(CCCOC(=O)CCCCCCCCCCC(=O)OCCCn2cc(C(=O)NC(=O)OCC)c(=O)[nH]c2=O)c(=O)[nH]c1=O here?
The TGI was > 100 µM.

Which TGI does the source give for COc1cc(/C=C(\C#N)c2ccccc2)cc(OC)c1 here?
The TGI was > 100 µM.

For N#Cc1cccnc1Cl, which TGI is on record?
Its TGI is > 100 µM.

With CC(=O)N[C@H]1CSSC[C@@H](C(N)=O)NC(=O)[C@H](C(C)C)NC(=O)[C@H](C)NC(=O)[C@H](Cc2cnc[nH]2)NC1=O as the compound, how does the GI50 read?
Its GI50 is > 100 µM.

What about the TGI of the same compound?
Its TGI is > 100 µM.

How did the TGI turn out when C=CC/C=C/C/C=C/CCCCCCCc1cccc(O)c1C(=O)O was run?
The TGI was > 100 µM.

Which TGI does the source give for COc1ccc(OC)c2c(C(=O)O)c(Cc3ccccc3)ccc12 here?
Its TGI is > 100 µM.

Which TGI does the source give for O=C(Nc1c(Cl)cc([N+](=O)[O-])cc1Cl)C(=O)C(C1OC(=O)c2ccccc21)[N+](=O)[O-] (stereo not given) here?
Its TGI is > 100 µM.

Cc1c(C(=O)/C=C/c2ccccc2)[n+](=O)c2ccccc2n1[O-] was tested. Which TGI did it give?
The TGI was 40.7 µM.

With N#CC1CC2(C1)OCCS2 (stereo not given) as the compound, how does the TGI read?
Its TGI is > 100 µM.

For COc1cc(NC(C)CCCN)c2nccc(C)c2c1 (stereo not given), which TGI is on record?
The TGI was 21.1 µM.

For C1C[OH+]CC[OH+]CC[OH+]CC[OH+]CC[OH+]1.[Cl-].[V], which GI50 is on record?
The GI50 was > 100 µM.

And the TGI?
Its TGI is > 100 µM.

Which results are given for CCCCCCCCCCCCCCCCCCOc1ccccc1CC(=O)OCC[N+]1(C)CCCC1?
GI50: 2.1 µM; TGI: 5.07 µM

What does the source list for CC(=O)C(=CN1CCN(C(=O)c2ccco2)C1=S)C(C)=O?
GI50: 5.79 µM; TGI: > 100 µM

For c1ccc(C2Nc3ccccc3C3OCCCC23)cc1 (stereo not given), which TGI is on record?
The TGI was 51.1 µM.

CCOc1cc(C(C)(C)C)ccc1C1=N[C@@](C)(c2ccc(Cl)cc2)[C@@](C)(c2ccc(Cl)cc2)N1C(=O)N1CCN(CCCS(C)(=O)=O)CC1 was tested. Which GI50 did it give?
The GI50 was 2.48 µM.

And the TGI?
Its TGI is 6.15 µM.

Tested on: NCI-H460 lung
Test: NCI anticancer screen, dose series, 48 h

For O=C1[C@@H]2C(c3ccccc3F)=NO[C@@H]2C(=O)N1c1ccc(Cc2ccc(N3C(=O)[C@H]4C(c5ccccc5F)=NO[C@H]4C3=O)cc2)cc1, which TGI is on record?
Its TGI is > 100 µM.

With C=CCc1ccc(Oc2cc(CC=C)c3c(c2O)O[C@@H](CO)[C@H]3c2ccc(O)c(-c3cc(CC=C)ccc3O)c2)cc1 as the compound, how does the TGI read?
Its TGI is > 100 µM.

With O=C(NCO)NCOCn1c(=O)n(CO)c(=O)n(CO)c1=O as the compound, how does the TGI read?
The TGI was > 94.8 µM.

Which results are given for Cc1ccc(-c2nc3ccc(Cl)cc3c(=O)n2N2C(=O)CSC2c2ccccc2Cl)cc1 (stereo not given)?
GI50: 3.68 µM; TGI: > 100 µM

For Clc1ccc2c(c1)-c1c3c(nn1-c1ccccc1)-c1ccccc1SC3O2 (stereo not given), which TGI is on record?
Its TGI is > 100 µM.

Which GI50 does the source give for C#Cc1c(I)n(C2OC(CO[Si](C)(C)C(C)(C)C)C3OC(C)(C)OC32)c(=O)[nH]c1=O (stereo not given) here?
The GI50 was 20 µM.

And the TGI?
The TGI was 40.4 µM.

Reference: PubChem BioAssay (NCI)
